We go through 1 molecule from article PMC12051055, “Spectroscopy and crystallography define carotenoid oxygenases as a new subclass of mononuclear non-heme Fe^II enzymes” (The Journal of Biological Chemistry, 2025).

Each structure is given as a SMILES string.

The experiment concerns the target T1, CAO1 (Neurospora crassa carotenoid oxygenase 1) (Neurospora crassa, UniProt Q7S860).
T1 construct: gene cao-1
T1 sequence (Q7S860 1-526): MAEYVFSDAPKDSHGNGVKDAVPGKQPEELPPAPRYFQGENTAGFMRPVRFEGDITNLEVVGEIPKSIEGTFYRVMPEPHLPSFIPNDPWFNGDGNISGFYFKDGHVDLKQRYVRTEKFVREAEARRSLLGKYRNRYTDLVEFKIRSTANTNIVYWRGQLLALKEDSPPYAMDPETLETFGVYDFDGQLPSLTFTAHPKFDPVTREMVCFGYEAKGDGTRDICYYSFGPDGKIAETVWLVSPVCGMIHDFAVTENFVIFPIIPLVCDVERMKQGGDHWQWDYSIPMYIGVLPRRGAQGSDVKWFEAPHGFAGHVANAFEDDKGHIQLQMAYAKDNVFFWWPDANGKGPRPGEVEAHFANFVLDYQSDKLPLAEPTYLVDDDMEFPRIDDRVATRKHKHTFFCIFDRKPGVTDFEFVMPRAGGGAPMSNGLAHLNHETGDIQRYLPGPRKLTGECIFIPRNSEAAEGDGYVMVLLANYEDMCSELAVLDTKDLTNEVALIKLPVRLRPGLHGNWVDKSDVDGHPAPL
Kind of experiment: UV-visible/CD titration of Fe(II)-CAO1 (anaerobic); also X-ray crystal structure, MCD, steady-state kinetics. Type of experiment: binding.

For `Oc1cc(O)cc(/C=C/c2ccc(O)c(O)c2)c1` [piceatannol], the Kd (in general, the concentration at which binding is half-saturated) came to 50 nM.
